Tested on: beet armyworm (Spodoptera exigua)
Test: Test F: oviposition and egg hatch of treated beet armyworm adults
Assay type: in vivo
Conditions: for % of reduction: oviposition versus control; for No. neonates: total from successful egg hatch
Description: For evaluating the reproductive performance effects on beet armyworm (Spodoptera exigua), each test unit consisted of one pair of adult (female and male) Spodoptera exigua moths. To obtain the adult moths, pupae of approximately the same age (±1 day) were sexed and placed in individual containers until adults emerged. After emergence, the test insects were placed in a meshed cage.
Sub-lethal concentrations of Compound 1 on beet armyworm were defined based on a preliminary study using rates of 12.5, 25, 50 and 100 ppm.
The caged adults were sprayed with test solutions of the designated treatments using a compressed air-propelled (moving) belt sprayer calibrated at 0.7 m/sec (to deliver a flow rate was ca. 5.5 mL/sec), at 207 kPa, using nozzle 8001E Tee Jet flat fan spray nozzle positioned 18 cm above the test units. Each treatment had 12 replicates (i.e. 12 adult females and 12 adult males were used per treatment).
One day after treatment, a treated male and female (one each) were placed in a cage made from a 300 mL clear plastic cup covered with screened cloth and allowed to copulate. A cotton wick/plug soaked with 10% sucrose solution was supplied in each cage as a diet source.
The number of eggs laid and number of eggs hatched were counted at 3, 4, 5 and 6 days after treatment (DAT), which represented the typical period in which female moths actively produce viable eggs. The pair of moths was transferred to a new cage after each evaluation. To evaluate the number of egg hatched, the copulation cages containing eggs were saved and maintained in a growth chamber at 27° C., 50% relative humidity and 16 hours of light per day.
The raw data were analyzed using Fisher's LSD tests for means separation. […] The percent of reduction was derived by dividing the number of eggs from each treatment by the number of eggs from the control, subtracting the quotient from 1, and then multiplying by 100%.

## CNC(=O)c1cc(Cl)cc(C)c1NC(=O)c1cc(Br)nn1-c1ncccc1Cl [Compound 1, 3-bromo-N-[4-chloro-2-methyl-6-[(methylamino)carbonyl]phenyl]-1-(3-chloro-2-pyridinyl)-1H-pyrazole-5-carboxamide]
12.5 ppm, 3 DAT
  % hatched: 83%
  No. eggs: 782 b
  % of reduction: 66%
  No. neonates: 647 b
12.5 ppm, 4 DAT
  % hatched: 82%
  No. eggs: 315 b
  % of reduction: 66%
  No. neonates: 257 b
12.5 ppm, 5 DAT
  % hatched: 60%
  No. eggs: 256 b
  % of reduction: 77%
  No. neonates: 154 b
12.5 ppm, 6 DAT
  % hatched: 41%
  No. eggs: 219 b
  % of reduction: 73%
  No. neonates: 90 b
20 ppm, 3 DAT
  % hatched: 31%
  No. eggs: 208 b
  % of reduction: 91%
  No. neonates: 65 b
20 ppm, 4 DAT
  % hatched: 0%
  No. eggs: 134 bc
  % of reduction: 91%
  No. neonates: 0 b
20 ppm, 5 DAT
  % hatched: 0%
  No. eggs: 132 b
  % of reduction: 89%
  No. neonates: 0 b
20 ppm, 6 DAT
  % hatched: 0%
  No. eggs: 109 b
  % of reduction: 87%
  No. neonates: 0 b
31 ppm, 3 DAT
  % hatched: 0%
  No. eggs: 61 b
  % of reduction: 97%
  No. neonates: 0 b
31 ppm, 4 DAT
  % hatched: 0%
  No. eggs: 29 c
  % of reduction: 97%
  No. neonates: 0 b
31 ppm, 5 DAT
  % hatched: 0%
  No. eggs: 91 b
  % of reduction: 92%
  No. neonates: 0 b
31 ppm, 6 DAT
  % hatched: 0%
  No. eggs: 108 b
  % of reduction: 87%
  No. neonates: 0 b
All the tested rates (12.5, 20, 31 ppm), all the observation dates
  number of eggs (fecundity) and number of neonates (fertility) versus control: significant reductions
